Reference: ChEMBL document CHEMBL1201862, “PubChem BioAssay data set” (2004)
The source made the active and inactive calls.

Columns and labels:
[1] = biological target: T1, 1-phosphatidylinositol 4,5-bisphosphate phosphodiesterase gamma-1 (Homo sapiens, UniProt P19174); assay: Counterscreen for inhibitors of phospholipase C isozymes (PLC-B3): Fluorescence-based biochemical high throughput dose response assay to identify inhibitors of phospholipase C isozymes (PLC-gamma1).
T1 sequence (P19174 whole entry): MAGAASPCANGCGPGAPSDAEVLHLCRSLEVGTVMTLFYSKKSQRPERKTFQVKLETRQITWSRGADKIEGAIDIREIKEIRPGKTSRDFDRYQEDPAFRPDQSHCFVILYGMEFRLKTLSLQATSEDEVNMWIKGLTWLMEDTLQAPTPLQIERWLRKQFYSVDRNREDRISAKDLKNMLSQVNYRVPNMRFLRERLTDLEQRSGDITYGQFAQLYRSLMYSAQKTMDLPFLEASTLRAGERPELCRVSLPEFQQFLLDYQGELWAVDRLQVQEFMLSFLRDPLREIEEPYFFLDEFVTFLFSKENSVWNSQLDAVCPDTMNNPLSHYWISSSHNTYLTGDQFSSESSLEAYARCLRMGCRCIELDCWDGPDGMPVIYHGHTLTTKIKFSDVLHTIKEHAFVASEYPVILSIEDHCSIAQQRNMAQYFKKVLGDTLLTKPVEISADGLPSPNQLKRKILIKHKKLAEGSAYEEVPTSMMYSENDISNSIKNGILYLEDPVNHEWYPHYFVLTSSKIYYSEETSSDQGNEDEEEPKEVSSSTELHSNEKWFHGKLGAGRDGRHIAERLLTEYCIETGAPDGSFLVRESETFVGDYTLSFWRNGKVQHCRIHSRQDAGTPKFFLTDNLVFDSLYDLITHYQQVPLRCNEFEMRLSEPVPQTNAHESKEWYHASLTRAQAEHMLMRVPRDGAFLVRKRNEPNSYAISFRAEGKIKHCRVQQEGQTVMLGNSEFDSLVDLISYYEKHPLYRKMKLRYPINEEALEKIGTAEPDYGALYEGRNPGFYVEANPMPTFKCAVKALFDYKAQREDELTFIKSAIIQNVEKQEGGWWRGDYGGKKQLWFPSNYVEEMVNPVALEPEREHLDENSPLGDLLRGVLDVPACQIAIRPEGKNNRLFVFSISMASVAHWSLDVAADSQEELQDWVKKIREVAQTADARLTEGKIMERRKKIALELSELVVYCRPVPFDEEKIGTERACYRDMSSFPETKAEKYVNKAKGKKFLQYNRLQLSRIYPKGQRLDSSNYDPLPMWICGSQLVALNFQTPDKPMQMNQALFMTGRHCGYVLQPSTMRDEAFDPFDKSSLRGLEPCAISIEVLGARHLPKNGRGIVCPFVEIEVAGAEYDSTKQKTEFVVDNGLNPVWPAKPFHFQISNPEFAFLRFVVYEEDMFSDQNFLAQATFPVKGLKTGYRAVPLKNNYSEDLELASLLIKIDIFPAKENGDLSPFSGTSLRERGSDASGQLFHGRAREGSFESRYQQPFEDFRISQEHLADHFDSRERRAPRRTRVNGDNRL

[2] = inhibitors of firefly luciferase expression or activity, dose response, H4 neuroglioma cells, luminescence (AID 1990); format: functional, cell-based
[3] = biological target: T2, Bcl-2-related protein A1 (Mus musculus, UniProt Q07440); assay: Bfl-1 inhibitors, primary screen, biochemical, fluorescence polarization, FITC-Bid, mouse (AID 432)
T2 sequence (Q07440 whole entry): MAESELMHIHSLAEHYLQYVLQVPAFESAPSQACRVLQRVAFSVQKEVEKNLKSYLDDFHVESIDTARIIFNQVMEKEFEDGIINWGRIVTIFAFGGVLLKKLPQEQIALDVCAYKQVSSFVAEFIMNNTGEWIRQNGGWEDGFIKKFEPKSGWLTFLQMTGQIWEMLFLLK

[4] = Luminescence Cell-Based Dose Response HTS to Identify Inhibitors of 5'UTR Stem-Loop Driven Prion Protein mRNA Translation in H4 Neuroglioblastoma Cells. [Related pubchem assays: 1827 (Project Summary), 1813 (Primary HTS)]; format: functional
[5] = biological target: 14-3-3 protein gamma (Homo sapiens, UniProt P61981); assay: modulators of 14-3-3 gamma client binding – dose response (AID 711); format: functional
14-3-3 protein gamma, sequence (P61981 whole entry): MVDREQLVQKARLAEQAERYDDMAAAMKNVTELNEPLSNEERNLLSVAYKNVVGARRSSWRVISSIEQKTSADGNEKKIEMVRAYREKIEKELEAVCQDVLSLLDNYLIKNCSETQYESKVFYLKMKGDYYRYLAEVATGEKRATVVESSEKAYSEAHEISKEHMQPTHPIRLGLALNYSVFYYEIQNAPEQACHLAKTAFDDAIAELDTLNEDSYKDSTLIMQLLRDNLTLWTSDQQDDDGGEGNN

[6] = biological target: T3, Hexokinase HKDC1 (Homo sapiens, UniProt Q2TB90); assay: HKDC1 hexokinase activators, dose response, biochemical, W721R variant (AID 504730); format: functional
T3 sequence (Q2TB90 whole entry): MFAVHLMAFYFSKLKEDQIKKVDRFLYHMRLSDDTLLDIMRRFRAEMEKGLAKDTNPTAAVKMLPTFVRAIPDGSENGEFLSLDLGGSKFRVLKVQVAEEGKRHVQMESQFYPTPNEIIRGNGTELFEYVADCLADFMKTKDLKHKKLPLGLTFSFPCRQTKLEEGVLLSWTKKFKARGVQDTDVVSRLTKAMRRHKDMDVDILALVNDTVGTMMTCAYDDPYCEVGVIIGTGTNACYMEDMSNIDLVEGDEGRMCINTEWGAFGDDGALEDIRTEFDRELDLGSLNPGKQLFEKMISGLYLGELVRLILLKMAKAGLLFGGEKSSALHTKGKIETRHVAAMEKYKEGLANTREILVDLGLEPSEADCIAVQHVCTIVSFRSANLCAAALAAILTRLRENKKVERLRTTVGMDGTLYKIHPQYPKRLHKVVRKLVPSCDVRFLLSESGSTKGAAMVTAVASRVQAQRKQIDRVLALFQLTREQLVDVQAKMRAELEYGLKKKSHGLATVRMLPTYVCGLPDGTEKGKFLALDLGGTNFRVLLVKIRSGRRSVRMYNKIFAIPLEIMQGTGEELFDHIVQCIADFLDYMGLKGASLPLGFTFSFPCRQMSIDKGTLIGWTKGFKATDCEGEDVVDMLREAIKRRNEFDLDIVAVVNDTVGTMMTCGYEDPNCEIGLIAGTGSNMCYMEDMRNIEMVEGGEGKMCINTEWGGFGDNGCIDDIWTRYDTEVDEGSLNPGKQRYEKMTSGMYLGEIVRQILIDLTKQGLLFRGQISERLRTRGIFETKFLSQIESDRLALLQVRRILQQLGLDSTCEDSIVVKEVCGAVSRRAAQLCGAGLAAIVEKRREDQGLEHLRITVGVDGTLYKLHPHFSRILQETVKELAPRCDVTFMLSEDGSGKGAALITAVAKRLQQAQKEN

[7] = biological target: Ribosomal protein S6 kinase alpha-5 (Homo sapiens, UniProt O75582); format: functional
Ribosomal protein S6 kinase alpha-5, sequence (O75582 whole entry): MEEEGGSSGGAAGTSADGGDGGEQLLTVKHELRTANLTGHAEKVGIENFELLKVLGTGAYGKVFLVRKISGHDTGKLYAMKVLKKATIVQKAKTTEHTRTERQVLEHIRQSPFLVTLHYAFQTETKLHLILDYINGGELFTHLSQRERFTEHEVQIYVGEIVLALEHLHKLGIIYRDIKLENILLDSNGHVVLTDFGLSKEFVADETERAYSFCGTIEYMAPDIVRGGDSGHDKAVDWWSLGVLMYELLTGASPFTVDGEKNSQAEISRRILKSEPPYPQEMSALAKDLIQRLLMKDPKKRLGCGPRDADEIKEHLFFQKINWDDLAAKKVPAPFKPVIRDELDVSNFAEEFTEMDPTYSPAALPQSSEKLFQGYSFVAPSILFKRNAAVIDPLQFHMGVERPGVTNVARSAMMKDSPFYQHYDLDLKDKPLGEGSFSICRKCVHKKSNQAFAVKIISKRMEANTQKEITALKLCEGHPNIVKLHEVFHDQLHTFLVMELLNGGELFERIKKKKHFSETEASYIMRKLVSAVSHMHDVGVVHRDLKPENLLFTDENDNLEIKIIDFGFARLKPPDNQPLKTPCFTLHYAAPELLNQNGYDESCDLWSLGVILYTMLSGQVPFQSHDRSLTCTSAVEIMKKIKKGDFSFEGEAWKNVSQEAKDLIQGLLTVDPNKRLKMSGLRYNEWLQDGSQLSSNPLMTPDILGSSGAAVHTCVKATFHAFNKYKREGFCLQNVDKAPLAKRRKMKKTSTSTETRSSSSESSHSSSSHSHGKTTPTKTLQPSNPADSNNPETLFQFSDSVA

[8] = biological target: Cyclin-dependent kinase 7 (Homo sapiens, UniProt P50613); format: functional;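 note: value comes from a kinome-wide kinase profiling panel in which CDK7 is one member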
Cyclin-dependent kinase 7, sequence (P50613 whole entry): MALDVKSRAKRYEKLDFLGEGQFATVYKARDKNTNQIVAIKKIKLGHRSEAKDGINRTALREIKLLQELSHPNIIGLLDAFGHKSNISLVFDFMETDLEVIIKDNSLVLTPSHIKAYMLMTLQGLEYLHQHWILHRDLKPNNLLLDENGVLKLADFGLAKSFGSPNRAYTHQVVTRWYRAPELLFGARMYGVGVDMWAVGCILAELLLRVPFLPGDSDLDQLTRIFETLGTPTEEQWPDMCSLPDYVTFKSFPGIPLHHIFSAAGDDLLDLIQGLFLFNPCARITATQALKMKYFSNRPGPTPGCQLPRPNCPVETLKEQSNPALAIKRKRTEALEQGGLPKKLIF

[9] = biological target: Dual specificity tyrosine-phosphorylation-regulated kinase 3 (Homo sapiens, UniProt O43781); format: functional;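 note: measured as one member of a broad kinase panel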
Dual specificity tyrosine-phosphorylation-regulated kinase 3, sequence (O43781 whole entry): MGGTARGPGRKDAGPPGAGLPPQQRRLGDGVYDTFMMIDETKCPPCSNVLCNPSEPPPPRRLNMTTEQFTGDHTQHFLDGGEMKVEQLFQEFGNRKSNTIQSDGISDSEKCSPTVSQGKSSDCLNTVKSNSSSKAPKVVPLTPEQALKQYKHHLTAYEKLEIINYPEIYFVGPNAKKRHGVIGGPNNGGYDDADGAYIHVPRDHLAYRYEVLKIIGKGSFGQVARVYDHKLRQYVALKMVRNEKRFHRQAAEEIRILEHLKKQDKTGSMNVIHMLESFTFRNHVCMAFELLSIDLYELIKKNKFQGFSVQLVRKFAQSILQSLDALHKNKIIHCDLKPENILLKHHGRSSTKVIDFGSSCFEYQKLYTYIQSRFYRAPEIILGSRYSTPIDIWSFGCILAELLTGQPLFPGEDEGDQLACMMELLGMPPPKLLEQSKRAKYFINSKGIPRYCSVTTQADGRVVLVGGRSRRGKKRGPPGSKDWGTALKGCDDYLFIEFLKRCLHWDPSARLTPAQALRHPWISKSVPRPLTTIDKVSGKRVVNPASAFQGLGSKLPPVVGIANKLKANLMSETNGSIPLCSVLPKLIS

[10] = biological target: Protein-tyrosine kinase 6 (Homo sapiens, UniProt Q13882); format: functional
Protein-tyrosine kinase 6, sequence (Q13882 whole entry): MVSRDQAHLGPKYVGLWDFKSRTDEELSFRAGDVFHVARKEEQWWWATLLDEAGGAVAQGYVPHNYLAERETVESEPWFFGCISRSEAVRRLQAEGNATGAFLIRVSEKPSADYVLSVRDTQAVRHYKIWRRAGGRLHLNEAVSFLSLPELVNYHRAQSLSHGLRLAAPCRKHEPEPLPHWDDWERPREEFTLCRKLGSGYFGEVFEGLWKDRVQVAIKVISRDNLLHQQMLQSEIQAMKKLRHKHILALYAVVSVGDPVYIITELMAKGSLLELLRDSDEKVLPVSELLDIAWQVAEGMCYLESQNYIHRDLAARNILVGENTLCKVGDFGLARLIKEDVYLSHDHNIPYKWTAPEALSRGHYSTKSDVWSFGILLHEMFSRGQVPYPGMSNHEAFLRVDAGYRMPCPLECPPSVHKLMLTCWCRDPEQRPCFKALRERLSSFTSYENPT

[11] = biological target: Inhibitor of nuclear factor kappa-B kinase subunit epsilon (Homo sapiens, UniProt Q14164); assay: Navigating the Kinome. Panel member name: IKBKE; format: functional
Inhibitor of nuclear factor kappa-B kinase subunit epsilon, sequence (Q14164 whole entry): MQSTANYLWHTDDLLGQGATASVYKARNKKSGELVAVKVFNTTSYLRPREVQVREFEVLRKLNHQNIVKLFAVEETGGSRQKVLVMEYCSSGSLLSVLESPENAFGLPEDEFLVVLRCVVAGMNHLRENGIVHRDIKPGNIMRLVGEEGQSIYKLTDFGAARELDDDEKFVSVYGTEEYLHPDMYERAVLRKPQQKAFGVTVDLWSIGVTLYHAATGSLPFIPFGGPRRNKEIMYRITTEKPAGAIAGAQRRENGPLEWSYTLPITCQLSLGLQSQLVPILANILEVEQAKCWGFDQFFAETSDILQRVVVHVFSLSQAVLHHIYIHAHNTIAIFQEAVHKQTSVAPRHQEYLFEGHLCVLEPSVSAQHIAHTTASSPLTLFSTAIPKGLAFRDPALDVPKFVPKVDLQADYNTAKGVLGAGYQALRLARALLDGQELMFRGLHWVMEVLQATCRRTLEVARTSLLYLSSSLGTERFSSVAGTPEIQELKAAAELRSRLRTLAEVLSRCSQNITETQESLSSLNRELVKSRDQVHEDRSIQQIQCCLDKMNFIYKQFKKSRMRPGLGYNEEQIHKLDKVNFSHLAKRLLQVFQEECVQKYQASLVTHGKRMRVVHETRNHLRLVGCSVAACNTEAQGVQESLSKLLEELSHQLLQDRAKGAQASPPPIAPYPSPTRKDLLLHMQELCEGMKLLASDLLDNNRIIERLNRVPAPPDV

With CCOC(=O)c1c2c(n(Cc3ccccc3)c1C)C(=O)C(=O)c1ccccc1-2 the IC50 [1] was 28.3 µM (inactive).

For O=C(O)c1ccc2c3c(ncnc13)-c1ccccc1C2=O, the EC50 [2] was 2.48 µM (active), the IC50 [3] was > 100 µM (not active) and the EC50 [4] was 1.32 µM (active). For the same compound, the IC50 [5] was > 50 µM (not active).

With O=C(O)c1ccc(NC2=C(Cl)C(=O)c3ccccc3C2=O)cc1 the EC50 [6] was 5.62 µM (active).

In the case of COc1cc2c(cc1F)C(c1ccccc1Cl)=Nc1c(n[nH]c1C)N2 [RG-1530], the Ki [7] is reported as > 2 µM (inactive) and the Ki [8] is reported as 0.631 µM (active).

With Cc1ccc2nccc(NC(=O)Nc3cccc(C(F)(F)F)n3)c2c1 the Ki [9] was > 6.31 µM (inactive), the Ki [10] was 0.398 µM (active) and the Ki [11] was > 3.16 µM (inactive).
